This note sets out measurements from US20150231162A1, “FRUCTOSE ABSORPTION INHIBITOR” (Nagaoka Perfumery Co., Ltd., priority 2011, published 2015).

The assay concerns human colon carcinoma cell line, Caco-2. Nature of the assay: Fructose absorption inhibitory activity in the intestinal tracts (fructose permeation across a Caco-2 monolayer in Transwell inserts). The settings on record: 50 mM fructose, 3 h, Caco-2 Transwell; for inhibition at 5 µg/mL / inhibition at 50 µg/mL: Homo sapiens, read-out: Inhibitory Rate. It is filed as cell-based. On the procedure: Evaluation of fructose absorption inhibitory activity was carried out using the human colon carcinoma cell line, Caco-2 (manufactured by Dainippon Sumitomo Pharma Co., Ltd.) utilized for model experiments of the small intestinal mucosa. […] Caco-2 cells were seeded in a 6-well Transwell Insert (internal area: 4.2 cm2) and subcultured for around 3 weeks, while DMEM medium was replaced once every 3 to 4 days, until the Caco-2 cell density became around 2×10^5 cells/insert. The TEER value was measured before experiments and the state of Caco-2 cells was confirmed. […] Medium in the 6-well Transwell Insert was removed. […] A sample solution of each sample illustrated in Table 1 was added to the insert and each mixture was preincubated for 5 min. […] The TEER values were measured. […] The measurement was carried out three times for each sample illustrated in Table 1. The fructose concentrations of the permeated solutions were measured by an enzymatic method using D-fructose dehydrogenase (derived from Gluconobac sp.) (The concentration of each reagent represents the final concentration, respectively.). […] The fructose absorption inhibitory rate of each compound was determined using the following formula (I). […] As control, measurement was also carried out for gallic acid, ellagic acid, quercetin, (+)-catechin, (−)-epicatechin and (−)-epigallocatechin gallate.

With `O=C(O[C@H]1[C@@H]2OC(=O)c3cc(O)c(O)c(O)c3-c3c4cc(c(O)c3O)Oc3c(cc(O)c(O)c3O)C(=O)O[C@H]3C(O)O[C@@H]5COC(=O)c6cc(O)c(O)c(O)c6-c6c(cc(c(O)c6O)Oc6c(cc(O)c(O)c6O)C(=O)O[C@H]1C(O)O[C@@H]2COC4=O)C(=O)O[C@H]5[C@@H]3OC(=O)c1cc(O)c(O)c(O)c1)c1cc(O)c(O)c(O)c1` (stereo partly shown) [compound 7, Oenothein B], the “Inhibitory Rate” value (Dosage 5 μg/ml) is 63%.

On to `O=C(O[C@@H]1O[C@@H]2COC(=O)c3cc(O)c(O)c(O)c3-c3cc(c(O)c(O)c3O)C(=O)O[C@H]2[C@@H]2OC(=O)c3cc(O)c(O)c(O)c3-c3c(cc(O)c(O)c3O)C(=O)O[C@@H]12)c1cc(O)c(O)c(O)c1` [compound 4, Casuarictin], for which, for the setting “Dosage 5 μg/ml”, the inhibition at 5 µg/mL worked out at 46%.

As to `O=C(O[C@@H]1O[C@@H]2COC(=O)c3cc(O)c(O)c(O)c3-c3c(cc(O)c(O)c3O)C(=O)O[C@H]2[C@H](O)[C@H]1O)c1cc(O)c(O)c(O)c1` [compound 3, Strictinin], the inhibition at 5 µg/mL (Dosage 5 μg/ml) came to 43%. As for `Oc1cc(O)c2c(c1)O[C@H](c1ccc(O)c(O)c1)[C@H](O)C2` [compound 15, (−)-epicatechin, reference compound], under “Dosage 50 μg/ml”, the “Inhibitory Rate” value was <10%. Turning to `O=C(O[C@@H]1O[C@@H]2COC(=O)c3cc(O)c(O)c(O)c3-c3c(cc(O)c(O)c3O)C(=O)O[C@H]2[C@H](OC(=O)c2cc(O)c(O)c(O)c2)[C@H]1O)c1cc(O)c(O)c(O)c1` [compound 5, 1,3-di-O-galloyl-4,6-HHDP-β-D-glucose], the “Inhibitory Rate” value (Dosage 5 μg/ml) was 57%.

Regarding Eugeniflorin D2 [compound 6], the “Inhibitory Rate” value (Dosage 5 μg/ml) is recorded as 53%. For `O=C(OC1O[C@@H]2COC(=O)c3cc(O)c(O)c(O)c3-c3c(cc(O)c(O)c3O)C(=O)O[C@H]2[C@H](OC(=O)c2cc(O)c(O)c(O)c2)[C@H]1OC(=O)c1cc(O)c(O)c(O)c1)c1cc(O)c(O)c(O)c1` (stereo partly shown) [compound 2, Tellimagrandin II], the inhibition at 5 µg/mL (Dosage 5 μg/ml) came out at 52%. Turning to `O=c1c(O)c(-c2ccc(O)c(O)c2)oc2cc(O)cc(O)c12` [compound 13, Quercetin, reference compound], for the setting “Dosage 50 μg/ml”, the inhibition at 50 µg/mL turned out to be 23%. Still for that read-out and setting: the same measure for `O=C(O)c1cc(O)c(O)c(O)c1` [compound 11, Gallic acid, reference compound]: 19%.

For `O=c1oc2c(O)c(O)cc3c(=O)oc4c(O)c(O)cc1c4c23` [compound 12, Ellagic acid, reference compound], under “Dosage 50 μg/ml”, the inhibition at 50 µg/mL came to 22%. For `O=C(O[C@H]1[C@@H]2OC(=O)c3cc(O)c(O)c(O)c3-c3c(cc(O)c(O)c3O)C(=O)OC[C@H]2OC(O)[C@@H]1OC(=O)c1cc(O)c(O)c(O)c1)c1cc(O)c(O)c(O)c1` (stereo partly shown) [compound 1, Tellimagrandin I], for the setting “Dosage 5 μg/ml”, the “Inhibitory Rate” value is given as 49%. In the case of `Oc1cc(O)c2c(c1)O[C@H](c1ccc(O)c(O)c1)[C@@H](O)C2` [compound 14, (+)-catechin, reference compound], for the setting “Dosage 50 μg/ml”, the “Inhibitory Rate” value is <10%. With “(−)-epigallocatechin gallate [compound 16, reference compound]”, the “Inhibitory Rate” value (Dosage 5 μg/ml) turned out to be 28%.
